According to patent publication US6485921B1, “UBCLP and uses thereof” (Millennium Pharmaceuticals, Inc., priority 1998, dated 2002):

Test system: UBCLP expression in LNCaP cells
Assay: Expression of UBCLP in LNCaP prostate cancer cells treated with casodex or R1881
Type: cell-based, human
Conditions: 100 nM casodex versus 1 nM R1881, RPMI-1640 with 5% charcoal stripped serum, mRNA expression analysis
Protocol: In order to examine the effect of casodex, an anti-androgen, on the expression of UBCLP, LNCaP cells (androgen-responsive prostate cancer cells) were grown to 70% confluence in RPMI-1640 supplemented with 10% FBS. The cultures were then pretreated for 24 hours in dye-free RPMI-1640 containing 5% charcoal stripped serum. The cultures were then treated with either 1 nM R1881 or 100 nM casodex in RPMI-1640 containing 5% charcoal stripped serum prior to harvesting an extraction of total mRNA for expression analysis.
In CWR22 cells (a human primary prostate xenograft cell line; Wainstein et al. (1994) Cancer Res. 54:6059-52) implanted in male nude mice, UBCLP expression levels decrease about 5-fold in 21 days after castration. In CWR22R cells (Chen et al. (1998) Cancer Res 58:2777-83), an androgen-independent variant of CWR22 cells, UBCLP appears to be constitutively expressed with respect to androgen.

CC(O)(CS(=O)(=O)c1ccc(F)cc1)C(=O)Nc1ccc(C#N)c(C(F)(F)F)c1 (stereo not shown) [Casodex]
drop in UBCLP expression: 3 fold
